Assay results reported in patent US20230045509A1, “PHARMACEUTICAL COMPOSITIONS COMPRISING CABOTEGRAVIR” (ViiV Healthcare Company, priority 2019, published 2023).

Key:
[1] = test system: HIV-1 strains; settings: integrase strand transfer inhibitor; background statement; cited from earlier work
[2] = Wettability study to define limits of cabotegravir suspension strength; assay type: physicochemical
Protocol: Wettability of Cabotegravir in 38 mg/mL P338, 35 mg/mL PEG3350, and 20 mg/mL mannitol was assessed to estimate the approximate concentration limit for Cabotegravir suspension in this vehicle. This was performed by adding increasing amounts of Cab to 5 g of vehicle until a gross change in coarse suspension properties was observed.

For C[C@H]1CO[C@@H]2Cn3cc(C(=O)NCc4ccc(F)cc4F)c(=O)c(O)c3C(=O)N12 [Cabotegravir, N-((2,4-Difluorophenyl)methyl)-6-hydroxy-3-methyl-5,7-dioxo-2,3,5,7,11,11a hexahydro(1,3)oxazolo(3,2-a)pyrido(1,2-d)pyrazine-8-carboxamide], the potency [1] is given as “subnanomolar potency”, the Gross viscosity ([2]; 580† mg/mL Cabotegravir (calculated using approximated densities) in same vehicle) is given as “Boundary of thickening” and the Gross viscosity ([2]; 600† mg/mL Cabotegravir (calculated using approximated densities) in same vehicle) is given as “Thicker, but flowable”. For the same molecule, the Gross viscosity ([2]; 635† mg/mL Cabotegravir (calculated using approximated densities) in same vehicle) was “Slightly paste-like” and the “upper boundary of Cabotegravir solid suspension concentration” value ([2]; vehicle 38 mg/mL P338, 35 mg/mL PEG3350, 20 mg/mL mannitol) was no more than 600 mg/mL.
